{"source": "patent US7354921B2", "about": "“Pyrazolotriazines as kinase inhibitors” (Schering Corporation, priority 2004, dated 2008)", "data": [{"biological_target": "T1, CDK2 (Homo sapiens, UniProt P24941)", "T1 construct": "The expressed protein is approximately 34 kDa in size; made in house; host or cells: SF9 insect cells (recombinant baculovirus, pFASTBAC)", "assay": "CDK2 in vitro kinase assay (cyclin A or E-dependent), 33P-ATP SPA", "type": "biochemical", "conditions": "recombinant cyclin-CDK2 complex (cyclin A or E, not specified); biotinylated Histone H1 peptide substrate; 1 hour at room temperature; read-out: CDK 2 IC50", "units": {"IC50": "pM"}, "values": [{"smiles": "CCc1cnn2c(Nc3ccc(S(C)(=O)=O)cc3)nc(N3CCCC[C@H]3CCO)nc12", "IC50": 106000}, {"smiles": "CCc1cnn2c(NCc3cncnc3)nc(N3CCCC[C@H]3CCO)nc12", "IC50": 560}, {"smiles": "Cn1cc(CNc2nc(N3CCCC[C@H]3CCO)nc3c(C4CC4)cnn23)ccc1=O", "IC50": 3100}, {"smiles": "CCc1cnn2c(NCc3cccnc3)nc(N3CCCC[C@H]3CCO)nc12", "IC50": 880}, {"smiles": "CCc1cnn2c(NCc3ccc(=O)n(C)c3)nc(N3CCCC[C@H]3CCO)nc12", "IC50": 480}, {"smiles": "CCc1cnn2c(NCc3ccnnc3)nc(N3CCCC[C@H]3CCO)nc12", "IC50": 1200}, {"smiles": "CCc1cnn2c(NCc3ccn(CC)c(=O)c3)nc(N3CCCC[C@H]3CCO)nc12", "IC50": 520}]}]}
